Measured values reported in US10766893B2 (priority 2017, dated 2020).

Key:
Experiment in all cases: biochemical
Format in all cases: biochemical
Settings in all cases: 15 nM tritium labelled cAMP, 1 hr at room temperature
PDE1A = PDE1A (Homo sapiens (Human), UniProt P54750)
Text: (§1) Table 1 lists the IC50 value for inhibition of PDE1 by the compounds of the invention. […] PDE1 assays are described in the Experimental Section.

PDE1C = PDE1C (Homo sapiens (Human), UniProt Q14123)
Text: as §1

PDE1B = PDE1B (Homo sapiens (Human), UniProt Q01064)
Text: as §1

PDE1A, sequence (P54750 whole entry): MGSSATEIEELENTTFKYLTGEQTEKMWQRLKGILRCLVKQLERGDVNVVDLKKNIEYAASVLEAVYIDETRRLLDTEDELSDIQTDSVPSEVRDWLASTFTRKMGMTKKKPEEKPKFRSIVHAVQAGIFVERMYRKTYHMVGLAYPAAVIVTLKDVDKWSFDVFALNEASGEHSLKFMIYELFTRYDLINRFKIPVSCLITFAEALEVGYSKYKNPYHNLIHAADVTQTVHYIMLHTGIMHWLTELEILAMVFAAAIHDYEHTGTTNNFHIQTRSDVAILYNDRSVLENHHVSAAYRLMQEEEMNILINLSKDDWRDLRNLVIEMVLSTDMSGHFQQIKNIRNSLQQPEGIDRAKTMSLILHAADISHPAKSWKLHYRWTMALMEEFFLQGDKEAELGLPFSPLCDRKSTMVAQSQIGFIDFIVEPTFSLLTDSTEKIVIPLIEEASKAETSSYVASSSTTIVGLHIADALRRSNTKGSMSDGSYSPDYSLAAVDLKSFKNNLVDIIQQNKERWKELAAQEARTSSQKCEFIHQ
PDE1B, sequence (Q01064 whole entry): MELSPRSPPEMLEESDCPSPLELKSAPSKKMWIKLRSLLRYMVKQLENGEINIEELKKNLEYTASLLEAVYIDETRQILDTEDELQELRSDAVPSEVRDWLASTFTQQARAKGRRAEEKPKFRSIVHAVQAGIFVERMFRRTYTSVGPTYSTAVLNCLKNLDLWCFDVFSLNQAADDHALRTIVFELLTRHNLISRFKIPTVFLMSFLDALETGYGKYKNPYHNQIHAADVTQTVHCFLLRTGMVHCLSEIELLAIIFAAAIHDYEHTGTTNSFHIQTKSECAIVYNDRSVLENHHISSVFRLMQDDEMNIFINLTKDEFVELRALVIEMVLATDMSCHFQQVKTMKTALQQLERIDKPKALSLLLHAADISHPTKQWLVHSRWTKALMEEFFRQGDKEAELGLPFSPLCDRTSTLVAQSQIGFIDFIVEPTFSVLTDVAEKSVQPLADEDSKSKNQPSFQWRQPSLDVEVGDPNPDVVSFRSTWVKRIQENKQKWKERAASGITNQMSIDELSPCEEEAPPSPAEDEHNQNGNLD
PDE1C, sequence (Q14123 whole entry): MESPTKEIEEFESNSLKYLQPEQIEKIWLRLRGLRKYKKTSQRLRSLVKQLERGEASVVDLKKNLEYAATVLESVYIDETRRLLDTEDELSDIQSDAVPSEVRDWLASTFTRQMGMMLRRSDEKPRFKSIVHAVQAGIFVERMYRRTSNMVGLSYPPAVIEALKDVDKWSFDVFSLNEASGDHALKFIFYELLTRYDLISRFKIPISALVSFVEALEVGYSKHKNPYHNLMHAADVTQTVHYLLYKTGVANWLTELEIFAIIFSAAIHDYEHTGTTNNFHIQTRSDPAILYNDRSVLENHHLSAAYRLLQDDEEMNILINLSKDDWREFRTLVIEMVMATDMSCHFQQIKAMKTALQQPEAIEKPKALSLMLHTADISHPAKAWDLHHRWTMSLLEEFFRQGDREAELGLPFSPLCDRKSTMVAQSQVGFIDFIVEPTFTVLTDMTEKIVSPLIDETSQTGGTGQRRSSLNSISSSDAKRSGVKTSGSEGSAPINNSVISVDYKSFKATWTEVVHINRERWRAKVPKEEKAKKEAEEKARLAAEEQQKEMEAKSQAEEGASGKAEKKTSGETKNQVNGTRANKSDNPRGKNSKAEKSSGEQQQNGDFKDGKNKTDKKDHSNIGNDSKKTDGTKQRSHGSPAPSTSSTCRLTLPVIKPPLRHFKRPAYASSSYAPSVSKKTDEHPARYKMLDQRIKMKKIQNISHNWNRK

Q: With `CCCOc1cnccc1-c1cc(NCc2cnn(C)c2)c2c(n1)c(C)nn2C(C)C` [Example 31b, 1-isopropyl-3-methyl-N-[(1-methylpyrazol-4-yl)methyl]-5-(3-propoxy-4-pyridyl)pyrazolo[4,3-b]pyridin-7-amine] as the compound, how does the IC50 (PDE1A) read?
A: The IC50 was 4.6 nM.

Q: What about the IC50 (PDE1C) of the same compound?
A: Its IC50 is 18 nM.

Q: What about the IC50 (PDE1B) of the same compound?
A: Its IC50 is 0.38 nM.

Q: For `CCOc1cnccc1-c1cc(NCc2nnc(C)o2)c2c(n1)c(C)nn2C(C)C` [Example 34b, 5-(3-ethoxy-4-pyridyl)-1-isopropyl-3-methyl-N-[(5-methyl-1,3,4-oxadiazol-2-yl)methyl]pyrazolo[4,3-b]pyridin-7-amine], which IC50 (PDE1A) is on record?
A: The IC50 was 49 nM.

Q: And the IC50 (PDE1C)?
A: Its IC50 is 130 nM.

Q: And the IC50 (PDE1B)?
A: Its IC50 is 7 nM.

Q: With `Cc1nc2cccc(-c3cc(NCc4cnn(C)c4)c4c(n3)c(C)nn4C(C)C)c2o1` [Example 36b, 1-isopropyl-3-methyl-5-(2-methyl-1,3-benzoxazol-7-yl)-N-[(1-methylpyrazol-4-yl)methyl]pyrazolo[4,3-b]pyridin-7-amine] as the compound, how does the IC50 (PDE1A) read?
A: The IC50 was 14 nM.

Q: And the IC50 (PDE1C)?
A: The IC50 was 28 nM.

Q: And the IC50 (PDE1B)?
A: The IC50 was 2.4 nM.

Q: Which results are given for `Cc1nn(C(C)C)c2c(NCc3cnn(C)c3)cc(-c3cccc4ncoc34)nc12` [Example 37b, 5-(1,3-benzoxazol-7-yl)-1-isopropyl-3-methyl-N-[(1-methylpyrazol-4-yl)methyl]pyrazolo[4,3-b]pyridin-7-amine]?
A: IC50 (PDE1A): 16 nM; IC50 (PDE1C): 14 nM; IC50 (PDE1B): 2.4 nM

Q: Which results are given for `Cc1nn(C(C)C)c2c(NCc3cnn(C)c3)cc(-c3cccc4cc[nH]c34)nc12` [Example 38b, 5-(1H-indol-7-yl)-1-isopropyl-3-methyl-N-[(1-methylpyrazol-4-yl)methyl]pyrazolo[4,3-b]pyridin-7-amine]?
A: IC50 (PDE1A): 590 nM; IC50 (PDE1C): 350 nM; IC50 (PDE1B): 100 nM

Q: How did the IC50 (PDE1A) turn out when `Cc1nn(C(C)C)c2c(NCc3cnn(C)c3)cc(-c3cccc4cn[nH]c34)nc12` [Example 39b, 5-(1H-indazol-7-yl)-1-isopropyl-3-methyl-N-[(1-methylpyrazol-4-yl)methyl]pyrazolo[4,3-b]pyridin-7-amine] was run?
A: Its IC50 is 140 nM.

Q: And the IC50 (PDE1C)?
A: The IC50 was 300 nM.

Q: What about the IC50 (PDE1B) of the same compound?
A: The IC50 was 24 nM.
